Experimental data published in ChEMBL document CHEMBL3137667, “[Drug-induced liver injury; fourteenth updated edition of the bibliographic database of liver injuries and related drugs]” (Gastroenterol Clin Biol, 2004).

Assays:
[1] = human, serum, 4383 h
[2] = Highest frequency of moderate liver toxicity observed during clinical trials, expressed as a percentage. [column '% BIOL' in source]; settings: human
[3] = Proposed mechanism(s) of liver damage. [column 'MEC' in source]; settings: human
[4] = human
[5] = human; remark: listed apart in the source
[6] = human, serum
[7] = human; remark: listed apart in the source
[8] = human, serum; remark: listed apart in the source
[9] = human; remark: listed apart in the source
[10] = Highest frequency of acute liver toxicity observed during clinical trials, expressed as a percentage. [column '% AIGUE' in source]; settings: human
[11] = human; remark: listed apart in the source
[12] = human; remark: listed apart in the source
[13] = human; remark: listed apart in the source
[14] = human; remark: listed apart in the source
[15] = human; remark: listed apart in the source
[16] = Times to onset, minimal and maximal, observed in the indexed observations. [column 'DELAI' in source]; settings: human
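Wherever Hepatotoxicity (association with vascular disease) is given: count of indexed literature references reporting vascular liver injury in humans, e.g. peliosis hepatitis, hepatic veno-occlusive disease or Budd-Chiari syndrome.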
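Wherever Hepatotoxicity (benign tumour) is given: value is a count of indexed literature references citing a benign tumour confirmed by histopathology.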
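Wherever Hepatotoxicity (choleostasis) is given: human cholestatic liver injury, shown by histopathology or by peak ALT or AST elevation over alkaline phosphatase ratio below 2, value counts indexed literature reports.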
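Wherever Hepatotoxicity (chronic liver disease) is given: chronic liver injury confirmed by histopathology or persistently raised serum aminotransferase activity beyond 6 months, value given as the count of indexed literature references.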
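Wherever Hepatotoxicity (cirrhosis) is given: value is a count of indexed literature references reporting cirrhosis confirmed by histopathology.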
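Wherever Hepatotoxicity (cytolytic) is given: human cytolytic liver injury, shown by histopathology or by a ratio above 5 of peak ALT or AST elevation to alkaline phosphatase elevation, value counts indexed references.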
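Wherever Hepatotoxicity (granulomatous hepatitis) is given: value is a count of indexed literature references reporting granulomatous liver disease confirmed by histopathology.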
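Wherever Hepatotoxicity (malignant tumour) is given: malignant tumour confirmed by histopathology, value gives the count of indexed literature references reporting it.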
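Wherever Hepatotoxicity (severe hepatitis) is given: human clinical data: severe hepatitis, meaning potentially life-threatening liver failure or clinically observed cases, the value counts how many indexed literature references report it.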
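Wherever Hepatotoxicity (steatosis) is given: steatosis confirmed by histopathology, value is the count of indexed references.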

SMILES: CS(=O)(=O)c1ccc(C2=C(c3ccccc3)C(=O)OC2)cc1 [ROFECOXIB]
- Hepatotoxicity (chronic liver disease) [1]: 0
- Hepatotoxicity (moderate) [2]: 3.2%
- Hepatotoxicity (mechanism) [3]: Allergic
- Hepatotoxicity (steatosis) [4]: 0
- Hepatotoxicity (malignant tumour) [5]: 0
- Hepatotoxicity (acute) [6]: 2
- Hepatotoxicity (granulomatous hepatitis) [7]: 0
- Hepatotoxicity (moderate) [8]: 1
- Hepatotoxicity (association with vascular disease) [9]: 0
- Hepatotoxicity (acute) [10]: 0%
- Hepatotoxicity (benign tumour) [11]: 0
- Hepatotoxicity (cirrhosis) [12]: 0
- Hepatotoxicity (cytolytic) [13]: 1
- Hepatotoxicity (choleostasis) [14]: 1
- Hepatotoxicity (severe hepatitis) [15]: 0
- Hepatotoxicity (time to onset) [16]: 9 weeks

SMILES: CCC(C)n1ncn(-c2ccc(N3CCN(c4ccc(OC[C@H]5CO[C@](Cn6cncn6)(c6ccc(F)cc6F)O5)cc4)CC3)cc2)c1=O (stereo not given in full) [SAPERCONAZOLE]
- Hepatotoxicity (chronic liver disease) [1]: 0
- Hepatotoxicity (moderate) [2]: 0%
- Hepatotoxicity (mechanism) [3]: Dose-dependant
- Hepatotoxicity (steatosis) [4]: 0
- Hepatotoxicity (malignant tumour) [5]: 0
- Hepatotoxicity (acute) [6]: 0
- Hepatotoxicity (granulomatous hepatitis) [7]: 0
- Hepatotoxicity (moderate) [8]: 1
- Hepatotoxicity (association with vascular disease) [9]: 0
- Hepatotoxicity (acute) [10]: 0%
- Hepatotoxicity (benign tumour) [11]: 0
- Hepatotoxicity (cirrhosis) [12]: 0
- Hepatotoxicity (cytolytic) [13]: 0
- Hepatotoxicity (choleostasis) [14]: 0
- Hepatotoxicity (severe hepatitis) [15]: 0
- Hepatotoxicity (time to onset) [16]: 8 weeks

SMILES: CC(C)[C@@H](CC[C@@H](C)[C@H]1CC[C@H]2[C@@H]3[C@H](O)C[C@H]4C[C@@H](NCCCNCCCCN)CC[C@]4(C)[C@H]3CC[C@]12C)OS(=O)(=O)O [SQUALAMINE]
- Hepatotoxicity (chronic liver disease) [1]: 0
- Hepatotoxicity (moderate) [2]: 0%
- Hepatotoxicity (mechanism) [3]: Dose-dependant
- Hepatotoxicity (steatosis) [4]: 0
- Hepatotoxicity (malignant tumour) [5]: 0
- Hepatotoxicity (acute) [6]: 2
- Hepatotoxicity (granulomatous hepatitis) [7]: 0
- Hepatotoxicity (moderate) [8]: 1
- Hepatotoxicity (association with vascular disease) [9]: 0
- Hepatotoxicity (acute) [10]: 38.5%
- Hepatotoxicity (benign tumour) [11]: 0
- Hepatotoxicity (cirrhosis) [12]: 0
- Hepatotoxicity (cytolytic) [13]: 2
- Hepatotoxicity (choleostasis) [14]: 1
- Hepatotoxicity (severe hepatitis) [15]: 0
- Hepatotoxicity (time to onset) [16]: 2 days - 5 days

SMILES: Nc1ccc(S(N)(=O)=O)cc1 [SULFANILAMIDE]
- Hepatotoxicity (chronic liver disease) [1]: 0
- Hepatotoxicity (moderate) [2]: 0%
- Hepatotoxicity (mechanism) [3]: Allergic
- Hepatotoxicity (steatosis) [4]: 1
- Hepatotoxicity (malignant tumour) [5]: 0
- Hepatotoxicity (acute) [6]: 5
- Hepatotoxicity (granulomatous hepatitis) [7]: 0
- Hepatotoxicity (moderate) [8]: 0
- Hepatotoxicity (association with vascular disease) [9]: 0
- Hepatotoxicity (acute) [10]: 0%
- Hepatotoxicity (benign tumour) [11]: 0
- Hepatotoxicity (cirrhosis) [12]: 0
- Hepatotoxicity (cytolytic) [13]: 5
- Hepatotoxicity (choleostasis) [14]: 1
- Hepatotoxicity (severe hepatitis) [15]: 5
- Hepatotoxicity (time to onset) [16]: 2 weeks - 3 months

SMILES: Cc1ncc(C[n+]2csc(CCO)c2C)c(N)n1 [THIAMINE ION]
- Hepatotoxicity (chronic liver disease) [1]: 1
- Hepatotoxicity (moderate) ([2]; Liver): 0%
- Hepatotoxicity (mechanism) ([3]; Liver): Dose-dependant
- Hepatotoxicity (steatosis) [4]: 1
- Hepatotoxicity (malignant tumour) [5]: 0
- Hepatotoxicity (acute) [6]: 0
- Hepatotoxicity (granulomatous hepatitis) ([7]; Liver): 0
- Hepatotoxicity (moderate) [8]: 0
- Hepatotoxicity (association with vascular disease) [9]: 0
- Hepatotoxicity (acute) ([10]; Liver): 0%
- Hepatotoxicity (benign tumour) [11]: 0
- Hepatotoxicity (cirrhosis) [12]: 0
- Hepatotoxicity (cytolytic) ([13]; Liver): 0
- Hepatotoxicity (choleostasis) ([14]; Liver): 0
- Hepatotoxicity (severe hepatitis) ([15]; Liver): 0
- Hepatotoxicity (time to onset) [16]: 2 years

SMILES: CN1CCN(CCCN2c3ccccc3Sc3ccc(S(=O)(=O)N(C)C)cc32)CC1 [THIOPROPERAZINE]
- Hepatotoxicity (chronic liver disease) [1]: 0
- Hepatotoxicity (moderate) [2]: 0%
- Hepatotoxicity (mechanism) [3]: Allergic
- Hepatotoxicity (steatosis) [4]: 0
- Hepatotoxicity (malignant tumour) [5]: 0
- Hepatotoxicity (acute) [6]: 2
- Hepatotoxicity (granulomatous hepatitis) [7]: 0
- Hepatotoxicity (moderate) [8]: 0
- Hepatotoxicity (association with vascular disease) [9]: 0
- Hepatotoxicity (acute) [10]: 0%
- Hepatotoxicity (benign tumour) [11]: 0
- Hepatotoxicity (cirrhosis) [12]: 0
- Hepatotoxicity (cytolytic) [13]: 2
- Hepatotoxicity (choleostasis) [14]: 1
- Hepatotoxicity (severe hepatitis) [15]: 0
- Hepatotoxicity (time to onset) [16]: 24 days - > 1 month

SMILES: C[C@@H]1C[C@H]2[C@@H]3CCC4=CC(=O)C=C[C@]4(C)C3=CC[C@]2(C)[C@H]1C(=O)CN1CCN(c2cc(N3CCCC3)nc(N3CCCC3)n2)CC1 [TIRILAZAD]
- Hepatotoxicity (chronic liver disease) [1]: 0
- Hepatotoxicity (moderate) [2]: 8.5%
- Hepatotoxicity (mechanism) [3]: Dose-dependant
- Hepatotoxicity (steatosis) [4]: 0
- Hepatotoxicity (malignant tumour) [5]: 0
- Hepatotoxicity (acute) [6]: 0
- Hepatotoxicity (granulomatous hepatitis) [7]: 0
- Hepatotoxicity (moderate) [8]: 2
- Hepatotoxicity (association with vascular disease) [9]: 0
- Hepatotoxicity (acute) [10]: 0%
- Hepatotoxicity (benign tumour) [11]: 0
- Hepatotoxicity (cirrhosis) [12]: 0
- Hepatotoxicity (cytolytic) [13]: 0
- Hepatotoxicity (choleostasis) [14]: 0
- Hepatotoxicity (severe hepatitis) [15]: 0
- Hepatotoxicity (time to onset) [16]: 3 days - 10 days

SMILES: Cc1ccc(O)c([C@H](CCN(C(C)C)C(C)C)c2ccccc2)c1 [TOLTERODINE]
- Hepatotoxicity (chronic liver disease) [1]: 0
- Hepatotoxicity (moderate) [2]: 0%
- Hepatotoxicity (mechanism) [3]: Allergic
- Hepatotoxicity (steatosis) [4]: 0
- Hepatotoxicity (malignant tumour) [5]: 0
- Hepatotoxicity (acute) [6]: 1
- Hepatotoxicity (granulomatous hepatitis) [7]: 0
- Hepatotoxicity (moderate) [8]: 0
- Hepatotoxicity (association with vascular disease) [9]: 0
- Hepatotoxicity (acute) [10]: 0%
- Hepatotoxicity (benign tumour) [11]: 0
- Hepatotoxicity (cirrhosis) [12]: 0
- Hepatotoxicity (cytolytic) [13]: 1
- Hepatotoxicity (choleostasis) [14]: 1
- Hepatotoxicity (severe hepatitis) [15]: 0
- Hepatotoxicity (time to onset) [16]: 18 days

SMILES: O=c1n(CCCN2CCN(c3cccc(Cl)c3)CC2)nc2ccccn12 [TRAZODONE]
- Hepatotoxicity (chronic liver disease) [1]: 1
- Hepatotoxicity (moderate) [2]: 0%
- Hepatotoxicity (mechanism) [3]: Allergic
- Hepatotoxicity (steatosis) [4]: 0
- Hepatotoxicity (malignant tumour) [5]: 0
- Hepatotoxicity (acute) [6]: 8
- Hepatotoxicity (granulomatous hepatitis) [7]: 0
- Hepatotoxicity (moderate) [8]: 0
- Hepatotoxicity (association with vascular disease) [9]: 0
- Hepatotoxicity (acute) [10]: 0%
- Hepatotoxicity (benign tumour) [11]: 0
- Hepatotoxicity (cirrhosis) [12]: 0
- Hepatotoxicity (cytolytic) [13]: 5
- Hepatotoxicity (choleostasis) [14]: 3
- Hepatotoxicity (severe hepatitis) [15]: 1
- Hepatotoxicity (time to onset) [16]: 5 days - 18 months

SMILES: CCC(COC(=O)c1cc(OC)c(OC)c(OC)c1)(c1ccccc1)N(C)C (stereo not given) [TRIMEBUTINE]
- Hepatotoxicity (chronic liver disease) [1]: 0
- Hepatotoxicity (moderate) [2]: 0%
- Hepatotoxicity (mechanism) [3]: Allergic
- Hepatotoxicity (steatosis) [4]: 0
- Hepatotoxicity (malignant tumour) [5]: 0
- Hepatotoxicity (acute) [6]: 1
- Hepatotoxicity (granulomatous hepatitis) [7]: 0
- Hepatotoxicity (moderate) [8]: 0
- Hepatotoxicity (association with vascular disease) [9]: 0
- Hepatotoxicity (acute) [10]: 0%
- Hepatotoxicity (benign tumour) [11]: 0
- Hepatotoxicity (cirrhosis) [12]: 0
- Hepatotoxicity (cytolytic) [13]: 1
- Hepatotoxicity (choleostasis) [14]: 0
- Hepatotoxicity (severe hepatitis) [15]: 0
- Hepatotoxicity (time to onset) [16]: 2 weeks
